Test results reported in PubChem BioAssay (NCI).
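GI50 = concentration required for 50% inhibition of growth. TGI is the concentration that stops growth completely.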

Columns and labels:
Assay in all cases: NCI tumour cell line growth inhibition, 384-well format
[1] = tested on: SNB-19 CNS
[2] = tested on: A498 renal
[3] = tested on: RPMI-8226 leukemia
[4] = tested on: NCI-H322M lung
[5] = tested on: NCI-H226 lung
[6] = tested on: SK-MEL-2 melanoma
[7] = tested on: SK-MEL-5 melanoma
[8] = tested on: HCT-15 colon
[9] = tested on: U251 glioblastoma
[10] = tested on: CAKI-1 renal
[11] = tested on: M14 melanoma
[12] = tested on: IGROV1 ovarian
[13] = tested on: 786-0 renal
[14] = tested on: SN12C renal
[15] = tested on: MDA-MB-231 breast
[16] = tested on: A549 NSCLC
[17] = tested on: HT29 colon
[18] = tested on: SR leukemia
[19] = tested on: SF-295 CNS
[20] = tested on: MDA-MB-435 melanoma
[21] = tested on: NCI/ADR-RES ovarian
[22] = tested on: PC-3 prostate
[23] = tested on: HCC-2998 colon
[24] = tested on: OVCAR-5 ovarian
[25] = tested on: DU-145 prostate
[26] = tested on: K-562 leukemia
[27] = tested on: HOP-62 NSCLC
[28] = tested on: SF-539 CNS
[29] = tested on: OVCAR-8 ovarian
[30] = tested on: UO-31 renal
[31] = tested on: SW-620 colon
[32] = tested on: NCI-H522 lung
[33] = tested on: MOLT-4 leukemia
[34] = tested on: OVCAR-4 ovarian
[35] = tested on: RXF 393 renal
[36] = tested on: HL-60(TB) leukemia
[37] = tested on: ACHN renal
[38] = tested on: BT-549 breast
[39] = tested on: SK-MEL-28 melanoma
[40] = tested on: SF-268 CNS
[41] = tested on: TK-10 renal
[42] = tested on: HCT-116 colon
[43] = tested on: NCI-H23 lung
[44] = tested on: MALME-3M melanoma
[45] = tested on: OVCAR-3 ovarian
[46] = tested on: CCRF-CEM leukemia
[47] = tested on: UACC-257 melanoma
[48] = tested on: HOP-92 NSCLC
[49] = tested on: UACC-62 melanoma
[50] = tested on: LOX IMVI melanoma
[51] = tested on: SK-OV-3 ovarian
[52] = tested on: KM12 colon
[53] = tested on: COLO 205 colon
[54] = tested on: MCF7 breast
[55] = tested on: MDA-MB-468 breast
[56] = tested on: NCI-H460 NSCLC
[57] = tested on: T-47D breast

COc1ccc([C@H](CC(=O)O)N2CCN(CCCc3ccc4c(n3)NCCC4)C2=O)cn1
GI50 [1]: 0.302 µM
TGI [1]: > 100 µM
GI50 [2]: 0.0192 µM
TGI [2]: 1.04 µM
GI50 [3]: 7.91 µM
TGI [3]: 21.1 µM
GI50 [4]: 52.6 µM
TGI [4]: > 100 µM
GI50 [5]: 1.61 µM
TGI [5]: 42.6 µM
GI50 [6]: 0.0476 µM
TGI [6]: > 100 µM
GI50 [7]: 83.8 µM
TGI [7]: > 100 µM
GI50 [8]: 44.7 µM
TGI [8]: > 100 µM
GI50 [9]: 0.561 µM
TGI [9]: > 100 µM
GI50 [10]: 0.023 µM
TGI [10]: 0.132 µM
GI50 [11]: 40.6 µM
TGI [11]: > 100 µM
GI50 [12]: 0.914 µM
TGI [12]: 15.9 µM
GI50 [13]: 0.495 µM
TGI [13]: 24.9 µM
GI50 [14]: 36.7 µM
TGI [14]: > 100 µM
GI50 [15]: 1.73 µM
TGI [15]: 78.3 µM
GI50 [16]: 7.2 µM
TGI [16]: > 100 µM
GI50 [17]: 32.5 µM
TGI [17]: > 100 µM
GI50 [18]: 31.5 µM
TGI [18]: 86.5 µM
GI50 [19]: 41.1 µM
TGI [19]: > 100 µM
GI50 [20]: 96.3 µM
TGI [20]: > 100 µM
GI50 [21]: > 100 µM
TGI [21]: > 100 µM
GI50 [22]: 29.1 µM
TGI [22]: > 100 µM
GI50 [23]: 42.9 µM
TGI [23]: > 100 µM
GI50 [24]: 0.0927 µM
TGI [24]: 62.9 µM
GI50 [25]: 1.13 µM
TGI [25]: > 100 µM
GI50 [26]: 65.8 µM
TGI [26]: > 100 µM
GI50 [27]: 1.24 µM
TGI [27]: 21.7 µM
GI50 [28]: 10.1 µM
TGI [28]: 49.2 µM
GI50 [29]: 11.7 µM
TGI [29]: > 100 µM
GI50 [30]: 1.29 µM
TGI [30]: 8.86 µM
GI50 [31]: 88.2 µM
TGI [31]: > 100 µM
GI50 [32]: 0.151 µM
TGI [32]: 14.6 µM
GI50 [33]: 21.5 µM
TGI [33]: 66.3 µM
GI50 [34]: 0.0228 µM
TGI [34]: 15.2 µM
TGI [35]: 0.0412 µM
GI50 [36]: > 100 µM
TGI [36]: > 100 µM
GI50 [37]: 0.516 µM
TGI [37]: 52.3 µM
GI50 [38]: 0.162 µM
TGI [38]: 0.564 µM
GI50 [39]: 44.5 µM
TGI [39]: > 100 µM
GI50 [40]: 0.336 µM
TGI [40]: 28.1 µM
GI50 [41]: 0.0253 µM
TGI [41]: 0.13 µM
GI50 [42]: 35.3 µM
TGI [42]: > 100 µM
GI50 [43]: > 100 µM
TGI [43]: > 100 µM
GI50 [44]: 25.4 µM
TGI [44]: > 100 µM
GI50 [45]: 13.3 µM
TGI [45]: > 100 µM
GI50 [46]: 34.7 µM
TGI [46]: > 100 µM
GI50 [47]: 44.7 µM
TGI [47]: > 100 µM
GI50 [48]: 0.166 µM
TGI [48]: 0.933 µM
GI50 [49]: 38 µM
TGI [49]: > 100 µM
GI50 [50]: 21.1 µM
TGI [50]: 67.1 µM
GI50 [51]: 3.35 µM
TGI [51]: 65.4 µM
GI50 [52]: 55.7 µM
TGI [52]: > 100 µM
GI50 [53]: 36.8 µM
TGI [53]: > 100 µM
GI50 [54]: 30.6 µM
TGI [54]: > 100 µM
GI50 [55]: 23.3 µM
TGI [55]: 68.8 µM
GI50 [56]: 20.3 µM
TGI [56]: > 100 µM
GI50 [57]: 14.2 µM
TGI [57]: 51 µM
